For series [1] the following is noted: cited from earlier work.
The conditions of series [2]: cited from earlier work. This is another data set of the same source.
In another series the test system is CD34+ cell mobilization. Conditions: cited from earlier work.
A further series concerns CML. Conditions: cited from earlier work.
The conditions of series [3]: cited from earlier work; for mean AUC from time 0 to 24 hours postdose, higher than in subjects with normal renal function: single 240 μg/kg SC.
Another series has as its system APL. Conditions: cited from earlier work.

Where two headings read alike, the source gives them in different places.

`c1cc(CN2CCCNCCNCCCNCC2)ccc1CN1CCCNCCNCCCNCC1` [Plerixafor]: the MTD result in series [1] (animals, adverse neurologic effects) is recorded as “approximately 70 mg/m^2”. For the same molecule, the “dose limiting toxicities (DLTs)” value in series [1] (including severe dyspnea, tremors, ventral recumbency, convulsions at higher dosages) is given as “primarily adverse neurologic events”. In addition, in series [2] (240 μg/kg SC with G-CSF), the median terminal half-life is 4.6 h. The “time of peak plasma concentrations” value in series [2] (240 μg/kg SC with G-CSF, in most patients) was 0.5 h. Moreover, the “time of maximum fold increase in circulating cells” value in series [2] (after Plerixafor injection, all patients) is on record as “approximately 10 hours”. For the same molecule, the “median maximum increase in the number of circulating cells from baseline” value in series [2] (range, 3.0- to 5.5-fold) was 4.2 fold. The “most frequently reported adverse effects” value with CD34+ cell mobilization (human, in vivo) is “injection site reactions, gastrointestinal (GI) effects, paresthesias, and headaches”. Also, in the series with CD34+ cell mobilization (on average), the “augmentation of CD34+ cell mobilization by G-CSF” value is recorded as 3.8 fold. Besides, in the series on CD34+ cell mobilization (single SC dose 160 or 240 μg/kg alone or added to G-CSF), the safety and tolerability result was “generally safe and well-tolerated”. In the series on CML (added to nilotinib, vs nilotinib alone), the “leukemia burden in mice” value is reported as “significantly reduced”. Besides, the “mobilization of leukemic cells” value with CML (in vivo) was “mobilize leukemic cells in vivo”. For the same molecule, the “effect of renal impairment on maximal plasma concentrations” value in series [3] (human, in vivo) was “no effect”. Besides, the entries for the “mean AUC from time 0 to 24 hours postdose, higher than in subjects with normal renal function” value in series [3] (mild renal impairment), in series [3] (moderate renal impairment) and in series [3] (severe renal impairment) were 7%, 32% and 39%, respectively. For the same molecule, the safety profile result in series [3] (subjects with renal impairment vs controls) is reported as “similar”. Moreover, the Plerixafor clearance result in series [3] (subjects with renal impairment, positively correlated with creatinine clearance) is given as “reduced”. The “anti-tumor effect of Plerixafor alone” value in the series on APL (in these experiments (leukemia models)) is reported as “no detectable anti-tumor effect”. Moreover, the median overall survival in the series on APL (untreated control 18 days, cytarabine vs cytarabine+Plerixafor p<0.0006) is reported as 19 days. The circulating neutrophils entry (days 4, 8, 15, 22, 29 during infusion vs Screening (FIG. 8A)) is given as “increase of neutrophils”. Besides, the circulating monocytes result (days 4, 8, 15, 22, 29 during infusion vs Screening (FIG. 8B)) is listed as “increase in monocytes”.

The values above are taken from US20180344690A1, “Methods and Formulation for Enhancing Response to Radiotherapy” (The Board of Trustees of the Leland Stanford Junior …, priority 2017, published 2018).
